In patent EP2243478A1, “PHARMACEUTICAL COMPOSITION COMBINING AN ANTIARTHRITIC AGENT AND AN INTERLEUKIN-1 INHIBITING AGENT, WHICH CAN BE USED TO CONTROL AND TREAT OSTEOARTHRITIS AND RELATED DISEASES” (World Trade Import-Export, WTIE A.G., priority 2007, dated 2009):

What was measured:
pain = conditions: dose from 2 to 4 gr/day; cited from earlier work
[1] = cited from earlier work
[2] = in vivo; cited from earlier work
patients with hip OA = assay: comparative clinical study of Diacerein, Chondroitin and the combination Diacerein/Chondroitin, 6 month follow-up; format: in vivo
Description: A comparative clinical study in patients with hip OA was carried out with a 6 month term for follow-up. The study compared the efficacy of single Diacerein administration, single chondroitin and a combination of Diacerein/Chondroitin. The study included 120 patients which were divided in 3 treatment groups: • Groups 1: received Diacerein 50 mg administration twice a day. • Group 2: received Chondroitin 600 mg administration twice a day. • Group 3 : received Diacerein 50 mg /Chondroitin 600 mg administration twice a day.
Patients fulfilled with the inclusion criteria from the American Rheumatology Academy. Inclusion criteria were: • Symptomatic disease presence, defined as daily hip pain at least during the last two months. • A functional pain Lequesne index at least of 3 points. • Radiographic criteria were a joint space between 1 and 3 mm (without exceeding 3 mm) or less than 0.5 mm qf contralateral hip.
Joint hip space was measured through a prior pelvic radiography reading center, using a graded 0.1 mm magnification crystal. Start and end of treatment was radiographically assessed comparing the affected vs contralateral hip.
Laboratory analyses were carried out at the beginning of the study and on 6 months of treatment, assessing liver and kidney performance.

[3] = cited from earlier work; remark: listed apart in the source

Compound: CC(=O)Nc1ccc(O)cc1 [Paracetamol]
- controlling pain in patients (pain): 40 % of patients

Compound: CC(=O)Oc1cccc2c1C(=O)c1c(OC(C)=O)cc(C(=O)O)cc1C2=O [Diacerein]
- slow action start, not significant until ([1]; after treatment): 4 weeks
- effect is maintained after having cancelled the treatment ([1]; in vivo): ≥ 2 months
- clearance half-life in plasma [2]: 5 to 7 h
- Patient percentage with radiographic progression (joint space loss at least of 0.5 mm) (patients with hip OA; Data from first laboratory analysis, P= 0.035): 51.6%
- Patient percentage with radiographic progression (joint space loss at least of 0.5 mm) (patients with hip OA; Data upon 6 month treatment completion, P= 0.006): 46.7%
- patients cancelled the treatment (because of inefficacy) (patients with hip OA; after two months of treatment (time printed for Group 1), forty patients per group, twice a day oral): 6 patients
- joint space, Average ± SD (patients with hip OA; at 6 months of treatment, hip): 0.17 ± 0.24 mm/6 months

Compound: O=C(O)c1cc(O)c2c(c1)C(=O)c1cccc(O)c1C2=O [Rein, rein]
- bound to plasma proteins [3]: 99%
